Converted amounts (≈) assume the structure as drawn. Where two headings read alike, the source gives them in different places.
Experiments:
Assay in all cases: Minimal inhibitory concentration, agar dilution method
Type in all cases: cell-based
[1] = tested on: S. aureus N-241; details: Staphylococcus aureus, N241, Trypticase soy agar, about 10^8 CFU/ml, 37° C., 18 hours
Protocol: (§1) The Minimal Inhibitory Concentrations of the tested compounds were determined according to the agar dilution method. Namely, 1.0 ml each of aqueous solution of the test compounds diluted by serial dilutions was poured into test petri dishes, subsequently 9.0 ml each of Trypticase soy agar was poured into the dishes and mixed.
(§2) On each of the mixed agar plates, one loopful of bacterial suspension (about 10^8 CFU/ml) of test microorganism was streaked.
(§3) After the incubation at 37° C. for 18 hours, the lowest concentration of the tested compounds in the medium which caused apparently complete inhibition of growth of the test microorganism was taken to be minimal inhibitory concentration.

[2] = tested on: S. aureus FDA 209P; details: Staphylococcus aureus, FDA209P
Protocol: as §1, §2, §3

[3] = tested on: S. aureus 1840
Protocol: as §1, §2, §3

[4] = tested on: P. mirabilis IFO3849; details: Proteus mirabilis, Trypticase soy agar, about 10^8 CFU/ml, 37° C., 18 hours
Protocol: as §1, §2, §3

[5] = tested on: K. pneumoniae DT; details: Klebsiella pneumoniae, Trypticase soy agar, about 10^8 CFU/ml, 37° C., 18 hours
Protocol: as §1, §2, §3

[6] = tested on: E. coli NIHJ JC-2; details: Escherichia coli, NIHJJC2, Trypticase soy agar, about 10^8 CFU/ml, 37° C., 18 hours
Protocol: as §1, §2, §3

[7] = tested on: E. cloacae IFO12937; details: Enterobacter cloacae, Trypticase soy agar, about 10^8 CFU/ml, 37° C., 18 hours
Protocol: as §1, §2, §3

[8] = tested on: M. morganii IFO3168; details: Morganella morganii, Trypticase soy agar, about 10^8 CFU/ml, 37° C., 18 hours
Protocol: as §1, §2, §3

[9] = tested on: S. aureus J-108; details: Staphylococcus aureus, J108, Trypticase soy agar, about 10^8 CFU/ml, 37° C., 18 hours
Protocol: as §1, §2, §3

[10] = tested on: E. coli T 7; details: Escherichia coli, T7, Trypticase soy agar, about 10^8 CFU/ml, 37° C., 18 hours
Protocol: as §1, §2, §3

[11] = tested on: P. aeruginosa IFO3455; details: Pseudomonas aeruginosa, Trypticase soy agar, about 10^8 CFU/ml, 37° C., 18 hours
Protocol: as §1, §2, §3

[12] = tested on: P. vulgaris IFO3988; details: Proteus vulgaris, Trypticase soy agar, about 10^8 CFU/ml, 37° C., 18 hours
Protocol: as §1, §2, §3

[13] = tested on: S. marcescens IFO12648; details: Serratia marcescens, Trypticase soy agar, about 10^8 CFU/ml, 37° C., 18 hours
Protocol: as §1, §2, §3

[14] = tested on: C. freundii IFO12681; details: Citrobacter freundii, Trypticase soy agar, about 10^8 CFU/ml, 37° C., 18 hours
Protocol: as §1, §2, §3

[15] = tested on: E. coli O-111; details: Escherichia coli, O111, Trypticase soy agar, about 10^8 CFU/ml, 37° C., 18 hours
Protocol: as §1, §2, §3

[16] = tested on: S. aureus 308 A-1; details: Staphylococcus aureus, 308A1, Trypticase soy agar, about 10^8 CFU/ml, 37° C., 18 hours
Protocol: as §1, §2, §3

[17] = Staphylococcus aureus, S. aureus 1840, Trypticase soy agar, about 10^8 CFU/ml, 37° C., 18 hours, read-out: MIC
[18] = S. aureus FDA 209P, Trypticase soy agar, about 10^8 CFU/ml, 37° C., 18 hours, read-out: MIC

| Structure (SMILES) | MIC [1] [µg/mL] | MIC ([2]; 18 h) [µg/mL] | MIC [3, 17] [µg/mL] | MIC [4] [µg/mL] | MIC [5] [µg/mL] | MIC [6] [µg/mL] | MIC [7] [µg/mL] | MIC [8] [µg/mL] | MIC [9] [µg/mL] | MIC [10] [µg/mL] | MIC [11] [µg/mL] | MIC [12] [µg/mL] | MIC [13] [µg/mL] | MIC [14] [µg/mL] | MIC [15] [µg/mL] | MIC [16] [µg/mL] | MIC [2, 18] [µg/mL] | MIC ([3]; Staphylococcus aureus, 1840, 18 h) [µg/mL] |
| --- | --- | --- | --- | --- | --- | --- | --- | --- | --- | --- | --- | --- | --- | --- | --- | --- | --- | --- |
| CO/N=C(\C(=O)N[C@@H]1C(=O)N2C(C(=O)O)=C(CSc3nnnn3CCCNC(=N)N)CS[C@H]12)c1csc(N)n1 [Example 8, 7β-[2-(2-Aminothiazol-4-yl)-(Z)-2-methoxyiminoacetamido]-3-[[1-(3-guanidinopropyl)-1H-tetrazol-5-yl]thiomethyl]-3-cephem-4-carboxylic acid] | 12.5 (≈ 20.9 µM) | 0.78 (≈ 1.31 µM) | 0.78 (≈ 1.31 µM) | 0.39 (≈ 0.654 µM) | ≤ 0.1 | ≤ 0.1 | 0.39 (≈ 0.654 µM) | ≤ 0.1 | 6.25 (≈ 10.5 µM) | 0.39 (≈ 0.654 µM) | 6.25 (≈ 10.5 µM) | ≤ 0.1 | ≤ 0.1 | ≤ 0.1 | ≤ 0.1 | 0.78 (≈ 1.31 µM) |  |  |
| CO/N=C(\C(=O)N[C@@H]1C(=O)N2C(C(=O)O)=C(CSc3snc(SCC(=N)N)c3C#N)CS[C@H]12)c1csc(N)n1 [Example 15, 3-[(3-Amidinomethylthio-4-cyanoisothiazol-5-yl)thiomethyl]-7β-[2-(2-aminothiazol-4-yl)-(Z)-2-methoxyiminoacetamido]-3-cephem-4-carboxylic acid] | 6.25 (≈ 9.99 µM) |  |  | 0.78 (≈ 1.25 µM) | 0.2 (≈ 0.32 µM) | 0.39 (≈ 0.623 µM) | 0.78 (≈ 1.25 µM) | 0.2 (≈ 0.32 µM) | 6.25 (≈ 9.99 µM) | 0.39 (≈ 0.623 µM) | 6.25 (≈ 9.99 µM) | 0.2 (≈ 0.32 µM) | 0.39 (≈ 0.623 µM) | 0.2 (≈ 0.32 µM) | ≤ 0.1 | 0.2 (≈ 0.32 µM) | 0.2 (≈ 0.32 µM) | 0.39 (≈ 0.623 µM) |
| N=C(N)CSc1nnc(SCC2=C(C(=O)O)N3C(=O)[C@@H](NC(=O)/C(=N\O)c4csc(N)n4)[C@H]3SC2)s1 [Example 39, 3-[(2-Amidinomethylthio-1,3,4-thiadiazol-5-yl)thiomethyl]-7β-[2-(2-aminothiazol-4-yl)-(Z)-2-hydroxyiminoacetamido]-3-cephem-4-carboxylic acid] | 1.56 (≈ 2.65 µM) |  | 0.39 (≈ 0.664 µM) | 1.56 (≈ 2.65 µM) | ≤ 0.1 | 0.39 (≈ 0.664 µM) | 3.13 (≈ 5.33 µM) | 0.39 (≈ 0.664 µM) | 1.56 (≈ 2.65 µM) | 1.56 (≈ 2.65 µM) | 12.5 (≈ 21.3 µM) | 0.78 (≈ 1.33 µM) | 0.78 (≈ 1.33 µM) | 0.39 (≈ 0.664 µM) | ≤ 0.1 | 0.2 (≈ 0.34 µM) | 0.2 (≈ 0.34 µM) |  |
| N#Cc1c(SCC(=N)N)nsc1SCC1=C(C(=O)O)N2C(=O)[C@@H](NC(=O)/C(=N\O)c3csc(N)n3)[C@H]2SC1 [Example 42, 3-[(3-Amidinomethylthio-4-cyanoisothiazol-5-yl)thiomethyl]-7β-[2-(2-aminothiazol-4-yl)-(Z)-2-hydroxyiminoacetamido]-3-cephem-4-carboxylic acid] | 0.78 (≈ 1.28 µM) |  | 0.2 (≈ 0.327 µM) | 3.13 (≈ 5.12 µM) | 0.78 (≈ 1.28 µM) | 0.78 (≈ 1.28 µM) | 3.13 (≈ 5.12 µM) | 0.78 (≈ 1.28 µM) | 0.78 (≈ 1.28 µM) | 1.56 (≈ 2.55 µM) | 12.5 (≈ 20.4 µM) | 0.78 (≈ 1.28 µM) | 1.56 (≈ 2.55 µM) | 0.78 (≈ 1.28 µM) | ≤ 0.1 | ≤ 0.1 | ≤ 0.1 |  |
| N=C(N)CSCCn1nnnc1SCC1=C(C(=O)O)N2C(=O)[C@@H](NC(=O)/C(=N\O)c3csc(N)n3)[C@H]2SC1 [Example 44] | 3.13 (≈ 5.22 µM) |  | 0.2 (≈ 0.333 µM) | 3.13 (≈ 5.22 µM) | 0.2 (≈ 0.333 µM) | 0.2 (≈ 0.333 µM) | 3.13 (≈ 5.22 µM) | 0.39 (≈ 0.65 µM) | 3.13 (≈ 5.22 µM) | 0.78 (≈ 1.3 µM) | 12.5 (≈ 20.8 µM) | 0.39 (≈ 0.65 µM) | 0.39 (≈ 0.65 µM) | 0.39 (≈ 0.65 µM) | ≤ 0.1 | ≤ 0.1 | ≤ 0.1 |  |

— patent publication US4971963A, “Cephem compounds, and use” (Takeda Chemical Industries, Ltd., priority 1988, dated 1990)
